# Assay results taken from patent publication US20240254089A1, “MODULATORS OF MAS-RELATED G-PROTEIN RECEPTOR X4 AND RELATED PRODUCTS AND METHODS” (ESCIENT PHARMACEUTICALS, INC., priority 2020, published 2024).
# Target: T1, human MRGPR X4 (Homo sapiens, UniProt Q96LA9)
# T1 construct: expressed in transfected cells
# Assay: MRGPR X4 antagonist activity, IP-One Gq HTRF assay in stably transfected HEK cells
# Type: cell-based
# Method: HEK cells stably transfected to express human MIRGPR X4 were maintained in an incubator at 37° C. with 5% CO2 and grown in DMEM media with 10% fetal bovine serum (FBS) and […] each of sodium pyruvate, Glutamax, penicillin/streptomycin, and Geneticin. HEK cells stably transfected to express mouse MRGPR A1 were maintained in the same incubator and grown in DMEM media with 10% FBS, 1% each of sodium pyruvate, Glutamax, penicillin/streptomycin, Geneticin, and 2.2 mg/mL Hygromycin.
# Cells were plated in a 384-well assay plate at 20,000 cells per well in 12 μL of Opti-MEM and kept in an incubator overnight. On the day of the assay, compounds solubilized at 10 mM in DMSO were added as a 10-point curve (10 uM final top concentration with 1:3 serial dilutions) using a Tecan D300E digital dispenser. Agonists were diluted in assay buffer (final concentrations of 5.7 mM Tris-HCl, 43 mM NaCl, 50 mM LiCl, pH=8) and 2 μL of the appropriate agonist are added to each well. Final concentrations of agonists were 10 μM bilirubin, 20 μM deoxycholic acid, or 100 μM conjugated bilirubin (obtained from Lee Biosolutions, catalog #910-12). Final concentrations of DMSO were kept consistent across the plate. Plates were incubated in the dark for 1 h at 37° C. and then for 30 minutes at room temperature. IP-1 standards and HTRF detection reagents were added according to the IP-One—Gq Kit purchased from Cisbio (part number 62IPAPEJ) and incubated in the dark for 1 h at room temperature. The plate was read on a Molecular Devices SpectraMax iD5 plate reader. The HTRF ratio was calculated from the raw data and graphed using GraphPad Prism to calculate an IC50 value for each compound.
# T1 sequence (Q96LA9 whole entry): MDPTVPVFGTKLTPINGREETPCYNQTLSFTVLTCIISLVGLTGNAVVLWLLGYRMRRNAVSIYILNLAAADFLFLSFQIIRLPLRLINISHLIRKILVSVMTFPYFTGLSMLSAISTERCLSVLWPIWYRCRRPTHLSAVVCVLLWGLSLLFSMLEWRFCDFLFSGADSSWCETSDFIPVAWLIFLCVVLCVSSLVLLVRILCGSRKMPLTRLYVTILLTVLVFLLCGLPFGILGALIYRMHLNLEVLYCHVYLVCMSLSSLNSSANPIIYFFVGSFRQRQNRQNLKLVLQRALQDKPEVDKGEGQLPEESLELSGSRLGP
row,Structure (SMILES),IC50 [nM]
1,Cc1cccn2c(CCNC(=O)c3nn(Cc4ccc(Cl)cc4)c4ccc(F)cc34)nnc12 [Compound 1],< 100
2,O=C(NCCc1nnc2ccccn12)c1nn(Cc2ccc(Cl)cc2)c2ccc(F)cc12 [Compound 2],< 100
3,O=C(NCCc1nnc2ccccn12)c1nn(Cc2ccc(Cl)cc2)c2cc(F)ccc12 [Compound 3],< 100
4,Cc1cccn2c(CCNC(=O)c3nn(Cc4ccc(Cl)cc4)c4ccccc34)nnc12 [Compound 4],< 100
5,O=C(NCCc1nnc2n1CCCCC2)c1nn(Cc2ccc(C(F)(F)F)cc2)c2ccccc12 [Compound 5],< 100
6,O=C(NCCc1nnc2n1CCCCC2)c1nn(Cc2ccc(Cl)cc2)c2ccccc12 [Compound 6],< 100
7,Cc1cc(Cn2nc(C(=O)NCCc3nnc4n3CCCCC4)c3ccccc32)ccc1Cl [Compound 7],< 100
8,O=C(NCCc1nnc2n1CCCCC2)c1nn(Cc2ccc(Cl)cc2)c2ccc(Cl)cc12 [Compound 8],< 100
9,O=C(NCCc1cccc(O)c1)c1nn(Cc2ccc(Cl)cc2)c2ccccc12 [Compound 9],< 100
10,O=C(NCCc1nnc2ccccn12)c1nn(Cc2ccc(Cl)cc2)c2ccccc12 [Compound 10],< 100
11,Cc1cc(Cl)ccc1Cn1nc(C(=O)NCCc2nnc3n2CCCCC3)c2ccccc21 [Compound 11],< 100
12,O=C(NCCc1nnc2ccccn12)c1nn(Cc2ccc(Cl)cc2)c2ccc(Cl)cc12 [Compound 12],< 100
13,Cc1ccc(Cn2nc(C(=O)NCCc3nnc4n3CCCCC4)c3ccccc32)cc1 [Compound 13],< 100
14,O=C(NCCc1nnc2ccccn12)c1nn(Cc2ccc(C(F)(F)F)cc2)c2ccccc12 [Compound 14],< 100
15,O=C(NCCc1nnc2ccccn12)c1nn(Cc2ccc(Cl)cc2)c2cccc(F)c12 [Compound 15],< 100
16,O=C(NCCc1cccnc1)c1nn(Cc2ccc(Cl)cc2Cl)c2ccccc12 [Compound 16],< 100
17,O=C(NCCc1cccnc1)c1nn(Cc2ccc(Cl)c(F)c2)c2ccccc12 [Compound 17],< 100
18,O=C(NCCc1cccnc1)c1nn(Cc2ccc(Cl)cc2F)c2ccccc12 [Compound 18],< 100
19,O=C(NCCc1cccnc1)c1nn(Cc2ccc(Cl)cc2)c2ccccc12 [Compound 19],< 100
20,O=C(NCCc1ccccc1O)c1nn(Cc2ccc(Cl)cc2)c2ccccc12 [Compound 20],< 100
21,Cc1ccc(CCNC(=O)c2nn(Cc3ccc(Cl)cc3)c3ccccc23)cn1 [Compound 21],< 100

row,Structure (SMILES),IC50 [nM]
1,O=C(NCCc1cccnc1)c1nn(Cc2ccc(Cl)c(Cl)c2)c2ccccc12 [Compound 22],< 100
2,O=C(NCCc1ccccn1)c1nn(Cc2ccc(Cl)cc2)c2ccccc12 [Compound 23],< 100
3,O=C(NCCc1nnc2n1CCCCC2)c1nn(Cc2ccc(OC(F)F)cc2)c2ccccc12 [Compound 24],< 100
4,O=C(NCCc1nnc2n1CCCC2)c1nn(Cc2ccc(Cl)cc2)c2ccccc12 [Compound 25],< 100
5,Cc1ccc(Cn2nc(C(=O)NCCc3nnc4n3CCCCC4)c3c(C#N)cccc32)cc1 [Compound 26],< 100
6,Cc1ccc(Cn2nc(C(=O)NCCc3cccnc3)c3cc(Cl)ccc32)cc1 [Compound 27],< 100
7,Cc1ccc(Cn2nc(C(=O)NCCc3nc4c(s3)CCCC4)c3ccccc32)cc1 [Compound 28],100 to 500
8,O=C(NCCc1nc2c(s1)CCCC2)c1nn(Cc2ccc(Cl)cc2)c2ccccc12 [Compound 29],100 to 500
9,Cc1ccc(Cn2nc(C(=O)NCCc3nnc4n3CCCCC4)c3c(F)cccc32)cc1 [Compound 30],100 to 500
10,O=C(NCCc1ccncc1)c1nn(Cc2ccc(Cl)cc2)c2ccccc12 [Compound 31],100 to 500
11,Cc1cc(Cn2nc(C(=O)NCCc3cccnc3)c3ccccc32)ccc1Cl [Compound 32],100 to 500
12,O=C(NCCc1cn2c(n1)SCC2)c1nn(Cc2ccc(Cl)cc2)c2ccccc12 [Compound 33],100 to 500
13,Cc1nc(CCNC(=O)c2nn(Cc3ccc(Cl)cc3)c3ccccc23)sc1C [Compound 34],100 to 500
14,CC(C)c1ccc(Cn2nc(C(=O)NCCc3nnc4n3CCCCC4)c3ccccc32)cc1 [Compound 35],100 to 500
15,Cc1ccc(Cn2nc(C(=O)NCCc3nc4c(s3)CCC4)c3ccccc32)cc1 [Compound 36],100 to 500
16,Cc1cc(Cl)ccc1Cn1nc(C(=O)NCCc2cccnc2)c2ccccc21 [Compound 37],100 to 500
17,Cc1ccc(Cn2nc(C(=O)NCCc3nc(C)cs3)c3ccccc32)cc1 [Compound 38],100 to 500
18,Cc1ncccc1CCNC(=O)c1nn(Cc2ccc(C(F)(F)F)cc2)c2ccccc12 [Compound 39],100 to 500
19,O=C(NCCc1ccc(O)cc1)c1nn(Cc2ccc(Cl)cc2)c2ccccc12 [Compound 40],100 to 500
20,Cc1ccc(Cn2nc(C(=O)NCCc3cn4c(n3)SCC4)c3ccccc32)cc1 [Compound 41],100 to 500
21,O=C(NCCc1cccnc1)c1nn(Cc2ccc(OC(F)F)cc2)c2ccccc12 [Compound 42],100 to 500

row,Structure (SMILES),IC50 [nM]
1,"COc1cc(Cn2nc(C(=O)NCCc3cccnc3)c3ccccc32)ccc1Cl [Compound 43, 1-(4-chloro-3-methoxybenzyl)-N-(2-(pyridin-3-yl)ethyl)-1H-indazole-3-carboxamide]",100 to 500
2,Cc1ncccc1CCNC(=O)c1nn(Cc2ccc(Cl)cc2)c2ccccc12 [Compound 44],100 to 500
3,O=C(NCCc1noc2ccccc12)c1nn(Cc2ccc(Cl)cc2)c2ccccc12 [Compound 45],100 to 500
4,O=C(NCCc1nc2ccccc2s1)c1nn(Cc2ccc(Cl)cc2)c2ccccc12 [Compound 46],100 to 500
5,N#Cc1ccccc1Cn1nc(C(=O)NCCc2cccnc2)c2ccccc21 [Compound 47],100 to 500
6,Cn1ccc(CCNC(=O)c2nn(Cc3ccc(Cl)cc3)c3ccccc23)n1 [Compound 48],100 to 500
7,Cc1ccc(CCNC(=O)c2nn(Cc3ccc(C(F)(F)F)cc3)c3ccccc23)cn1 [Compound 49],100 to 500
8,CC(C)(C)c1ccc(Cn2nc(C(=O)NCCc3nnc4n3CCCCC4)c3ccccc32)cc1 [Compound 50],100 to 500
9,O=C(NCCc1nnc2ccccn12)c1nn(Cc2ccc(F)cc2)c2ccccc12 [Compound 51],100 to 500
10,Cc1ccc(Cn2nc(C(=O)NCCc3cccnc3)c3ccccc32)cc1 [Compound 52],100 to 500
11,Cc1ccc(Cn2nc(C(=O)NCCc3nc(C)c(C)s3)c3ccccc32)cc1 [Compound 53],100 to 500
12,O=C(NCCc1nc2c(s1)CCCC2)c1nn(Cc2ccc(Cl)c(F)c2)c2ccccc12 [Compound 54],100 to 500
13,Cc1cccc(CCNC(=O)c2nn(Cc3ccc(Cl)cc3)c3ccccc23)n1 [Compound 55],100 to 500
14,O=C(NCCc1nc2c(s1)CCCC2)c1nn(Cc2ccc(Cl)c(Cl)c2)c2ccccc12 [Compound 56],100 to 500
15,O=C(NCCc1cccnc1)c1nn(Cc2ccc(F)cc2)c2ccccc12 [Compound 57],100 to 500
16,O=C(NCCc1nnc2n1CCCCC2)c1nn(Cc2cccc(F)c2)c2ccccc12 [Compound 58],100 to 500
17,Cc1ccc(Cn2nc(C(=O)NCCc3nnc4n3CCC4)c3ccccc32)cc1 [Compound 59],100 to 500
18,Cc1ccc(Cn2nc(C(=O)NCCc3nc4c(s3)CCCC4)c3c(C#N)cccc32)cc1 [Compound 60],100 to 500
19,COc1ccc(CCNC(=O)c2nn(Cc3ccc(Cl)cc3)c3ccccc23)nc1 [Compound 61],100 to 500
